According to US20230373985A1 (Origenis Gmbh, priority 2020, published 2023):

How the values were obtained:
[1] = target: T1, wt human NUAK1, full length (Homo sapiens, UniProt O60285); assay: TR-FRET LanthaScreen Eu Kinase Binding Assay, NUAK1; settings: read-out: IC50, Activity Toward NUAK1
T1 construct: 8 nM wt human NUAK1, full length (ThermoFisher/USA); purchased ThermoFisher
T1 sequence (O60285 1-661): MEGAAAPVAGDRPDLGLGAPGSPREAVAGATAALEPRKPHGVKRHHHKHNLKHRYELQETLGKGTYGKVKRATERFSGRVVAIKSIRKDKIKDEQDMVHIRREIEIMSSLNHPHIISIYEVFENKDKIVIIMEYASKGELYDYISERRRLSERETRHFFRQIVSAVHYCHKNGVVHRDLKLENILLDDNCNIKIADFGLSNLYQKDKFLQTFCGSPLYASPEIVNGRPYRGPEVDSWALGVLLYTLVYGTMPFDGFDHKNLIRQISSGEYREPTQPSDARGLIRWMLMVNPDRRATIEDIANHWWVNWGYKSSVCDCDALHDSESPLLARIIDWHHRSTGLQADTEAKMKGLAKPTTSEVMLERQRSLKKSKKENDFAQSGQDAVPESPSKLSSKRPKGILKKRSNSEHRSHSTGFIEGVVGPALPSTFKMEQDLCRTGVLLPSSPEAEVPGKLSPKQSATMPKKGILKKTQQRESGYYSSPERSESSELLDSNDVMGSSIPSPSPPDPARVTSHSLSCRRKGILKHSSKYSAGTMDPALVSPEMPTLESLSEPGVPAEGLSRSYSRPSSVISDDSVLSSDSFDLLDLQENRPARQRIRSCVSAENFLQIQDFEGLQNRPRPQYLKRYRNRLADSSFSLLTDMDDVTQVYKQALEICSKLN
Outline: (§1)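 NUAK1: 8 nM enzyme, 2 nM Eu-anti-His antibody, 5 nM Tracer 236. LRRK2 wt/G2019S: 5 nM enzyme, 2 nM Eu-anti-GST antibody, 10 nM Tracer 236. Kinase Buffer A, 1 h RT, TR-FRET ratio.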

[2] = target: T2, wt human JAK1, catalytic site (Homo sapiens, UniProt P23458); assay: HTRF KinEASE assay, JAK1; format: biochemical; settings: 2.5 μM ATP; read-out: IC50, Activity Toward JAK1
T2 construct: wt human JAK1, catalytic site; purchased ThermoFisher
T2 sequence (P23458 875-1153 limits assumed): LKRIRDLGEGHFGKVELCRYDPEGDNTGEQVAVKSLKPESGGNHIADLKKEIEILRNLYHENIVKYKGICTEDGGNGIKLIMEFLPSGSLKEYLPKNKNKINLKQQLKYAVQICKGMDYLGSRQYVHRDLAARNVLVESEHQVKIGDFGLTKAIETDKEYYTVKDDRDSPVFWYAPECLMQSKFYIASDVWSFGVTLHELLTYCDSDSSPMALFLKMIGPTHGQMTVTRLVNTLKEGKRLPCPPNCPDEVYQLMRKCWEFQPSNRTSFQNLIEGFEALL
Outline: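 Compounds in DMSO dilution were mixed with kinase, biotin-TK substrate and ATP and reacted for ≥30 min at room temperature. Detection reagents (antibody, streptavidin-XL665) were read 60 min later as HTRF, with emission ratios analysed per KinEASE protocol.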

[3] = target: T3, wt human TYK2, catalytic site (Homo sapiens, UniProt P29597); assay: HTRF KinEASE assay, TYK2; format: biochemical; settings: 1 μM ATP; read-out: IC50, Activity Toward TYK2
T3 construct: wt human TYK2, catalytic site; purchased SignalChem
T3 sequence (P29597 897-1176 limits assumed): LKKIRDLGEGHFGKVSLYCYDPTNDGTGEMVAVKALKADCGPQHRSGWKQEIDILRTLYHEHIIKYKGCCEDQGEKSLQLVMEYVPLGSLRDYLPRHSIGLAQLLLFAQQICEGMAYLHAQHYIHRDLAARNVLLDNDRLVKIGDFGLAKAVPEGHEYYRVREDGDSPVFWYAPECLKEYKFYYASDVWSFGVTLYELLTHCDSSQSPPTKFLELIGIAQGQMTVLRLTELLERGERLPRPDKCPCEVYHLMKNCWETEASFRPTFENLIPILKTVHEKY
Outline: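 Kinase reaction run at room temperature for at least 30 min: 2 nM TYK2 with 1 μM ATP, or 1 nM JAK2 with 100 μM ATP, each with 1 μM biotin-TK substrate. Phosphorylation detected by HTRF (60 min antibody/XL665) and evaluated from emission ratios.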

[4] = target: T4, wt human JAK2, catalytic site (Homo sapiens, UniProt O60674); assay: HTRF KinEASE assay, JAK2; format: biochemical; settings: assay format not given (Z'-LYTE or HTRF KinEASE); read-out: IC50, Activity Toward JAK2
T4 construct: wt human JAK2, catalytic site; purchased SignalChem
T4 sequence (O60674 849-1124 limits assumed): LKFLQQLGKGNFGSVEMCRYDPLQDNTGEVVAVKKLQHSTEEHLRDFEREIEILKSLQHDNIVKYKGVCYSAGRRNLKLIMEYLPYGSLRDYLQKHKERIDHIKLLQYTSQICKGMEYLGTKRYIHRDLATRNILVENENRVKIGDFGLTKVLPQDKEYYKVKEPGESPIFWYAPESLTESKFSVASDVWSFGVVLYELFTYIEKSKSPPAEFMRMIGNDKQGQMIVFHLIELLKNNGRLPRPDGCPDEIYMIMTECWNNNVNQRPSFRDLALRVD
Description: Basic protocol for HTRF KinEASE assay (Cisbio/FRA) inhibitor studies involved two steps: • Enzymatic step: Addition of 4 μL of test compound in corresponding DMSO dilutions, 4 μL of kinase/substrate mixture, 2 μL of ATP into 384 well small volume plates. Incubation for at least 30 minutes at room temperature. • Detection step: Addition of 5 μL antibody and 5 μL streptavidin-XL665, read plate after 60 minutes. Data analysis of emission ratios according KinEASE assay protocol.
(§2) Kinase and assay components were adjusted to final concentrations according to kit protocol. For TYK2: 2 nM wt human TYK2, catalytic site (SignalChem/CAN), 1 μM HTRF KinEASE-TK Substrate-biotin, 1 μM ATP in 1× Kinase Buffer. For JAK1: 4 nM wt human JAK1, catalytic site (ThermoFisher/USA), 1 μM HTRF KinEASE-TK Substrate-biotin, 2.5 μM ATP in 1× Kinase Buffer. For JAK2: 1 nM wt human JAK2, catalytic site (SignalChem/CAN), 1 μM HTRF KinEASE-TK Substrate-biotin, 100 μM ATP in 1× Kinase Buffer.
as §2

[5] = target: T5, G2019S human LRRK2, catalytic site (Homo sapiens, UniProt Q5S007, G2019S); assay: TR-FRET LanthaScreen Eu Kinase Binding Assay, LRRK2 G2019S; settings: LRRK2(G2019); one range stated for wt and G2019; read-out: IC50, Activity Toward LRRK2(G2019)
T5 construct: G2019S human LRRK2, catalytic site; purchased ThermoFisher
T5 sequence (Q5S007 970-2527 G2019S limits assumed): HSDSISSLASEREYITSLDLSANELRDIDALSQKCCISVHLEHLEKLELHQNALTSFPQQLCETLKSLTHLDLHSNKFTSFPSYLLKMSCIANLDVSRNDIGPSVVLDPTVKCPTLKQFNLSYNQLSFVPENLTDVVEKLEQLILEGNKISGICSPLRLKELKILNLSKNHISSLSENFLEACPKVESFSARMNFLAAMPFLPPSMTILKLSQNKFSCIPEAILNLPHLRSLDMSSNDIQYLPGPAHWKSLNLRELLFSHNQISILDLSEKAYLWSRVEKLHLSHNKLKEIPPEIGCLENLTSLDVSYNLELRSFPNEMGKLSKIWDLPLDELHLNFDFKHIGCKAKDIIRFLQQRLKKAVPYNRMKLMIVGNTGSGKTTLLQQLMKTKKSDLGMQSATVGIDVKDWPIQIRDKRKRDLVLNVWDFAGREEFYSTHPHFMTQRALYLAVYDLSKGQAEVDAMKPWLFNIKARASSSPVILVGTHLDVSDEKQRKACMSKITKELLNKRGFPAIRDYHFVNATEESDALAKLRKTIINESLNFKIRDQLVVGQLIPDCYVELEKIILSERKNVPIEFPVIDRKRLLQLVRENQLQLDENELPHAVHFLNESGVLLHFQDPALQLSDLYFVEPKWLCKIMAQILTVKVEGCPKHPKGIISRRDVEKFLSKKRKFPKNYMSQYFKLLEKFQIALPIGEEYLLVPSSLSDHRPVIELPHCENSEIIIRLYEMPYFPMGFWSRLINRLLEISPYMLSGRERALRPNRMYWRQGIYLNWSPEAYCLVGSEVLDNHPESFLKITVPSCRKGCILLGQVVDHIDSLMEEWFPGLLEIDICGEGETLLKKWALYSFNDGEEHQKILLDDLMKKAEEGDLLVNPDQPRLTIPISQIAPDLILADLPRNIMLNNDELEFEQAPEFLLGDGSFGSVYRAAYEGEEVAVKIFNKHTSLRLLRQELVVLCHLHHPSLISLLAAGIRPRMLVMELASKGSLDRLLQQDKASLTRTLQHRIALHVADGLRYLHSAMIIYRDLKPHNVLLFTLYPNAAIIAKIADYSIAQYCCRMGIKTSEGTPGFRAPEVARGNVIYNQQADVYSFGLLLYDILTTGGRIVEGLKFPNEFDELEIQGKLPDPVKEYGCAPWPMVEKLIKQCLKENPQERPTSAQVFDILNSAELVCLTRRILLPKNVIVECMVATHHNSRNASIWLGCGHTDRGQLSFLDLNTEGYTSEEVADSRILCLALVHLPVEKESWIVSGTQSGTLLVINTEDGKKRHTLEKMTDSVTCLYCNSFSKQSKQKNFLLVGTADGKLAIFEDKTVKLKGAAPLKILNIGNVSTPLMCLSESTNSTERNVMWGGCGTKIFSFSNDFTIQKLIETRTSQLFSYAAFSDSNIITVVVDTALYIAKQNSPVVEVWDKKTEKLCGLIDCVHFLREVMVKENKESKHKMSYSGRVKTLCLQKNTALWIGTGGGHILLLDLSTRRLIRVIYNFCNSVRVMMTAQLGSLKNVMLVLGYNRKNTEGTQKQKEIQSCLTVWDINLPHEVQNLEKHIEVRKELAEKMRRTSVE
Outline: as §1

[6] = target: T6, wt human LRRK2, catalytic site (Homo sapiens, UniProt Q5S007); assay: TR-FRET LanthaScreen Eu Kinase Binding Assay, LRRK2 wt; settings: one range stated for wt and G2019, read-out: IC50, Activity Toward LRRK2(Wt)
T6 construct: 5 nM wt human LRRK2, catalytic site; purchased ThermoFisher
T6 sequence (Q5S007 970-2527 limits assumed): as the sequence (Q5S007 970-2527 G2019S limits assumed) above, with S1050G counted along it
Outline: as §1

| IC50 [1] [nM] | IC50 [2] [nM] | IC50 [3] [nM] | IC50 [4] [nM] | IC50 [5] [nM] | IC50 [6] [nM] | Structure (SMILES) |
| --- | --- | --- | --- | --- | --- | --- |
| 100 to 1000 | 10 to 100 | < 10 | 100 to 1000 | – | – | CC(C)Cn1cnnc1-c1ccc(Nc2cn(-c3c(Cl)cccc3Cl)nc2C(N)=O)cc1 [compound 203, 1-(2,6-dichlorophenyl)-4-((4-(4-isobutyl-4H-1,2,4-triazol-3-yl)phenyl)amino)-1H-pyrazole-3-carboxamide] |
| 100 to 1000 | 10 to 100 | < 10 | 100 to 1000 | – | – | Cn1nnnc1-c1ccc(Nc2nn(-c3c(Cl)cccc3Cl)nc2C(N)=O)cc1 [compound 104] |
| – | 10 to 100 | < 10 | 100 to 1000 | 100 to 1000 | 100 to 1000 | CCn1cnnc1-c1ccc(Nc2cn(-c3c(Cl)cc(F)cc3Cl)nc2C(N)=O)cc1 [compound 414, 1-(2,6-dichloro-4-fluorophenyl)-4-((4-(4-ethyl-4H-1,2,4-triazol-3-yl)phenyl)amino)-1H-pyrazole-3-carboxamide] |
| – | – | < 10 | 100 to 1000 | 100 to 1000 | 100 to 1000 | CC(C)n1cnnc1-c1ccc(Nc2nn(-c3c(Cl)cccc3Cl)nc2C(N)=O)cc1 [compound 116, 2-(2,6-dichlorophenyl)-5-((4-(4-isopropyl-4H-1,2,4-triazol-3-yl)phenyl)amino)-2H-1,2,3-triazole-4-carboxamide] |
| – | 10 to 100 | 10 to 100 | 100 to 1000 | 100 to 1000 | 100 to 1000 | CCc1cnncc1-c1ccc(Nc2cn(-c3c(Cl)cccc3Cl)nc2C(N)=O)cc1 [compound 322, 1-(2,6-dichlorophenyl)-4-((4-(5-ethylpyridazin-4-yl)phenyl)amino)-1H-pyrazole-3-carboxamide] |
| – | < 10 | < 10 | 100 to 1000 | 100 to 1000 | 100 to 1000 | NC(=O)c1nn(-c2c(Cl)cccc2Cl)nc1Nc1ccc(C(=O)N2CC(C(N)=O)C2)cc1 [compound 108] |
| – | 10 to 100 | < 10 | 100 to 1000 | 100 to 1000 | 100 to 1000 | NC(=O)c1nn(-c2c(Cl)cccc2Cl)cc1Nc1ccc(C(=O)N2CCOCC2)cc1 [compound 17, 1-(2,6-dichlorophenyl)-4-((4-(morpholine-4-carbonyl)phenyl)amino)-1H-pyrazole-3-carboxamide] |
| – | 10 to 100 | < 10 | 100 to 1000 | 100 to 1000 | 100 to 1000 | CN(C)C1CCN(C(=O)c2ccc(Nc3nn(-c4c(Cl)cccc4Cl)nc3C(N)=O)cc2)CC1 [compound 122, 2-(2,6-dichlorophenyl)-5-((4-(4-(dimethylamino)piperidine-1-carbonyl)phenyl)amino)-2H-1,2,3-triazole-4-carboxamide] |
| – | 10 to 100 | < 10 | 100 to 1000 | 100 to 1000 | 100 to 1000 | NC(=O)c1nn(-c2c(Cl)cccc2Cl)cc1Nc1ccc(-n2ncnc2C2COC2)cc1 [compound 347, 1-(2,6-dichlorophenyl)-4-((4-(5-(oxetan-3-yl)-1H-1,2,4-triazol-1-yl)phenyl)amino)-1H-pyrazole-3-carboxamide] |
| – | 10 to 100 | < 10 | 100 to 1000 | 100 to 1000 | 100 to 1000 | Cc1cnnn1-c1ccc(Nc2nn(-c3c(Cl)cccc3Cl)nc2C(N)=O)cc1 [compound 131, 2-(2,6-dichlorophenyl)-5-((4-(5-methyl-1H-1,2,3-triazol-1-yl)phenyl)amino)-2H-1,2,3-triazole-4-carboxamide] |
| – | < 10 | 10 to 100 | 100 to 1000 | 100 to 1000 | 100 to 1000 | NC(=O)c1nn(-c2c(Cl)cccc2Cl)nc1Nc1ccc(-c2nncn2CC(F)F)cc1 [compound 113, 2-(2,6-dichlorophenyl)-5-((4-(4-(2,2-difluoroethyl)-4H-1,2,4-triazol-3-yl)phenyl)amino)-2H-1,2,3-triazole-4-carboxamide] |
| – | 100 to 1000 | < 10 | 100 to 1000 | 100 to 1000 | 100 to 1000 | NC(=O)c1nn(-c2c(Cl)cccc2Cl)cc1Nc1ccc(-c2nnc3n2CCOC3)cc1 [compound 57, 1-(2,6-dichlorophenyl)-4-((4-(6,8-dihydro-5H-[1,2,4]triazolo[3,4-c][1,4]oxazin-3-yl)phenyl)amino)-1H-pyrazole-3-carboxamide] |
| – | < 10 | < 10 | 100 to 1000 | 100 to 1000 | 100 to 1000 | NC(=O)c1nn(-c2c(Cl)cccc2Cl)nc1Nc1ccc(C(=O)N2CC(F)C2)cc1 [compound 129, 2-(2,6-dichlorophenyl)-5-((4-(3-fluoroazetidine-1-carbonyl)phenyl)amino)-2H-1,2,3-triazole-4-carboxamide] |
| – | 10 to 100 | < 10 | 100 to 1000 | 100 to 1000 | 100 to 1000 | NC(=O)c1nn(-c2c(Cl)cccc2Cl)cc1Nc1ccc(C(=O)N2CC(F)C2)cc1 [compound 425, 1-(2,6-dichlorophenyl)-4-((4-(3-fluoroazetidine-1-carbonyl)phenyl)amino)-1H-pyrazole-3-carboxamide] |
| – | 10 to 100 | 10 to 100 | 100 to 1000 | – | – | COCCCNC(=O)c1ccc(Nc2nn(-c3c(Cl)cccc3Cl)nc2C(N)=O)cc1 [compound 119, 2-(2,6-dichlorophenyl)-5-((4-((3-methoxypropyl)carbamoyl)phenyl)amino)-2H-1,2,3-triazole-4-carboxamide] |
| – | 10 to 100 | < 10 | 100 to 1000 | 100 to 1000 | 100 to 1000 | CN1CCN(C(=O)c2ccc(Nc3cn(-c4c(Cl)cccc4Cl)nc3C(N)=O)cc2)CC1 [compound 32, 1-(2,6-dichlorophenyl)-4-((4-(4-methylpiperazine-1-carbonyl)phenyl)amino)-1H-pyrazole-3-carboxamide] |
| – | 10 to 100 | < 10 | 100 to 1000 | – | – | NC(=O)c1nn(-c2c(Cl)cccc2Cl)nc1Nc1ccc(C(=O)N2CC(O)C2)cc1 [compound 124, 2-(2,6-dichlorophenyl)-5-((4-(3-hydroxyazetidine-1-carbonyl)phenyl)amino)-2H-1,2,3-triazole-4-carboxamide] |
